# Experimental data reported in patent US6426355B1, “Heterocyclic carboxamide-containing thiourea inhibitors of herpes viruses containing phenylenediamine group” (American Home Products, priority 1998, dated 2002).
# What was measured:
# [1] = system: HCMV recombinant mutant virus (RV145); assay: HCMV microtiter plate assay (beta-glucuronidase reporter); assay type: cell-based, Human Cytomegalovirus; conditions: HCMV in human foreskin fibroblasts
# Summary of the method: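 Human foreskin fibroblasts were infected with RV145 in the presence of inhibitor. β-glucuronidase under a viral promoter served as the replication marker. At 96 h post-infection, lysates in pH 7.0 phosphate with Triton X-100/sarkosyl were assayed colorimetrically or fluorometrically, and IC50 was estimated from varying inhibitor amounts.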
# [2] = system: HSV-1; assay: HSV Antiviral (ELISA) assay; assay type: cell-based; conditions: HSV-1 in Vero cells
# Summary of the method: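 Vero cells in DMEM/2% FBS pretreated with compound 30 min before HSV-1 infection (MOI 0.006), then ~24 h at 37 °C. Viral gD detected by ELISA with β-galactosidase secondary and 4-methylumbelliferyl-galactoside (ex 365/em 450 nm); IC50 from fluorescence versus untreated infected cells.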
# [3] = system: VZV strain Ellen; assay: VZV Antiviral (ELISA) assay; assay type: cell-based; conditions: VZV strain Ellen in HFF cells; for % inhibition 10 ug/ml VZV: at 10 ug/ml
# Summary of the method: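 HFF cells infected with VZV Ellen at low multiplicity (<0.1) overnight were seeded at 3.5×10^4 cells/well in DMEM with 2% FBS plus compound and incubated three days at 37° C., 5% CO2. Viral replication was read by ELISA against glycoprotein II with β-galactosidase fluorogenic readout (ex 365/em 450 nm); IC50 relative to no-compound fluorescence.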
SMILES,IC50 (ug/ml) HCMV [1] [µg/mL],IC50 (ug/ml) HSV [2] [µg/mL],IC50 (ug/ml) VZV [3] [µg/mL],% inhibition 10 ug/ml VZV [3] [%]
COc1cc(OC)c(NC(=S)Nc2ccc(NC(=O)c3ccc(Cl)o3)cc2)cc1Cl [Example 163],7,3,>10,30
COc1cc(OC)c(NC(=S)Nc2ccc(NC(=O)c3ccoc3)cc2)cc1Cl [Example 166],>10,9,>10,30
COc1cc(OC)c(NC(=S)Nc2ccc(NC(=O)c3occc3C)cc2)cc1Cl [Example 167],9,10,3.8,70
COc1cc(OC)c(NC(=S)Nc2ccc(NC(=O)c3ccc(Br)o3)cc2)cc1Cl [Example 168],2.5,3,>10,
COc1cc(OC)c(NC(=S)Nc2ccc(NC(=O)c3cc(Br)co3)cc2)cc1Cl [Example 169],4,3,>10,26
COc1cc(OC)c(NC(=S)Nc2ccc(NC(=O)c3ccco3)cc2)cc1Cl [Example 170],0.2,>10,>10,32
COc1cc(OC)c(NC(=S)Nc2ccc(NC(=O)c3cncc4ccccc34)cc2)cc1Cl [Example 172],>10,>10,>10,25
COc1cc(OC)c(NC(=S)Nc2ccc(NC(=O)c3csnn3)cc2)cc1Cl [Example 173],0.08,>10,>10,31
COc1cc(OC)c(NC(=S)Nc2ccc(NC(=O)c3c[nH]nn3)cc2)cc1Cl [Example 174],6,50,>10,8
COc1cc(OC)c(NC(=S)Nc2ccc(NC(=O)c3sccc3Br)cc2)cc1Cl [Example 175],>10,2,>10,24
O=C(Nc1ccc(NC(=S)Nc2ccc(Cl)c(C(F)(F)F)c2)cc1)c1csnn1 [Example 200],0.02,>10,>15,55
COc1c(Cl)cc(NC(=S)Nc2ccc(NC(=O)c3csnn3)cc2)cc1Cl [Example 201],0.023,>10,8,78
COc1cc(OC)c(NC(=S)Nc2ccc(NC(=O)c3ccccn3)cc2)cc1Cl [Example 224],0.8,3.5,>10,30
COc1cc(OC)c(NC(=S)Nc2ccc(NC(=O)c3ccnc4ccccc34)cc2)cc1Cl [Example 225],>10,1,>10,30
Cc1ccc(NC(=S)Nc2ccc(NC(=O)c3csnn3)cc2)cc1Cl [Example 230],0.015,>10,>10,
Cc1ccc(NC(=S)Nc2ccc(NC(=O)c3ccco3)cc2)cc1Cl [Example 233],0.09,>10,>10,30
Cc1ccc(NC(=S)Nc2ccc(NC(=O)c3ccccn3)cc2)cc1Cl [Example 236],0.7,>10,>10,40
CN(c1ccc(NC(=S)Nc2ccc(NC(=O)c3csnn3)cc2)cc1Cl)C1CCCCC1 [Example 237],0.02,>10,>10,17
CN(c1ccc(NC(=S)Nc2ccc(NC(=O)c3ccco3)cc2)cc1Cl)C1CCCCC1 [Example 246],0.05,>10,4,37
CN(c1ccc(NC(=S)Nc2ccc(NC(=O)c3ccccn3)cc2)cc1Cl)C1CCCCC1 [Example 249],0.4,>10,>10,59
COc1cc(OC)c(NC(=S)Nc2ccc(NC(=O)c3snnc3-c3ccccc3)cc2)cc1Cl [Example 264],>10,>10,>10,28
COc1cc(OC)c(NC(=S)Nc2ccc(NC(=O)c3nnsc3C)cc2)cc1Cl [Example 279],>10,>10,>10,
COc1cc(OC)c(NC(=S)Nc2ccc(NC(=O)c3nnsc3-c3ccoc3)cc2)cc1Cl [Example 280],>10,>10,>10,
COc1cc(OC)c(NC(=S)Nc2ccc(NC(=O)c3nnsc3-c3ccccc3)cc2)cc1Cl [Example 281],>10,>10,>10,31
COc1cc(OC)c(NC(=S)Nc2ccc(NC(=O)c3snnc3-c3ccoc3)cc2)cc1Cl [Example 288],4,>10,>10,30
COc1cc(OC)c(NC(=S)Nc2ccc(NC(=O)c3cnns3)cc2)cc1Cl [Example 323],0.03,3,>10,45
CN(C)c1ccc(NC(=S)Nc2ccc(NC(=O)c3ccco3)cc2)cc1Cl [Example 330],0.15,>10,>10,29
CN(c1ccc(NC(=S)Nc2ccc(NC(=O)c3ccco3)cc2)cc1Cl)C1CCN(Cc2ccccc2)C1 (centres unmarked) [Example 331],2,1.8,5,98
CN1CCC(N(C)c2ccc(NC(=S)Nc3ccc(NC(=O)c4csnn4)cc3)cc2Cl)C1 (centres unmarked) [Example 341],0.15,2,>10,50
CN1CCC(N(C)c2ccc(NC(=S)Nc3ccc(NC(=O)c4ccco4)cc3)cc2Cl)CC1 [Example 344],0.25,4,7,72
